According to patent US9862730B2, “Imidazothiadiazole derivatives as protease activated receptor 4 (PAR4) inhibitors for treating platelet aggregation” (BRISTOL-MYERS SQUIBB COMPANY, priority 2012, dated 2018):

Biological target: PAR4 (Homo sapiens (Human), UniProt Q96RI0)
Experiment: FLIPR assay in PAR4-expressing HEK293 cells (PAR4 antagonist activity, calcium mobilization)
Assay type: cell-based
Settings: FLIPR assay as described in Example A
Text: The FLIPR assay is an exemplary in vitro assay for measuring the activity of the PAR4 antagonists of the present invention. In this assay, intracellular calcium mobilization is induced in PAR4 expressing cells by a PAR4 agonist and calcium mobilization is monitored. See, e.g., Example A.
HEK293 cells stably expressing PAR4 were generated by a standard method of transfection of human […] cDNA expression vector or by RAGE technology from Athersys Inc. (Cleveland, Ohio) and selected based on PAR4 protein expression of mRNA expression. […] These cells express endogenous PAR1 and can elicit calcium signal upon stimulation with PAR1 agonist peptide.
Counter screens for agonist activity and PAR1 antagonist activity were also performed. Briefly, HEK293 EBNA PAR4 clone 20664.1J cells were plated 24 hrs. prior to experiment in 384 well, Poly-D-Lysine coated, black, clear bottom plates (Greiner Bio-One, Monroe, N.C.). Cells were plated at 20,000 cells/well in 20 μl growth medium and incubated at 37° C. with 5% CO2 overnight. At time of assay, media was replaced with 40 μl 1× Hank's Buffered Saline Solution (HBSS) (with 10 mM HEPES) and 20 μl test compound also diluted in 1×HBSS buffer was added at various concentrations and 0.67% DMSO final concentration on the FDSS for agonist measurement. The cells were then incubated for 30 minutes at room temperature followed by addition of 20 μl of agonist peptide for antagonist measurement on the FDSS.
As indicated above, the FLIPR assay, an in vitro assay, measures the PAR4 antagonist activity of compounds tested as described in Example A.

Chain of PAR4 (Q96RI0 18-385): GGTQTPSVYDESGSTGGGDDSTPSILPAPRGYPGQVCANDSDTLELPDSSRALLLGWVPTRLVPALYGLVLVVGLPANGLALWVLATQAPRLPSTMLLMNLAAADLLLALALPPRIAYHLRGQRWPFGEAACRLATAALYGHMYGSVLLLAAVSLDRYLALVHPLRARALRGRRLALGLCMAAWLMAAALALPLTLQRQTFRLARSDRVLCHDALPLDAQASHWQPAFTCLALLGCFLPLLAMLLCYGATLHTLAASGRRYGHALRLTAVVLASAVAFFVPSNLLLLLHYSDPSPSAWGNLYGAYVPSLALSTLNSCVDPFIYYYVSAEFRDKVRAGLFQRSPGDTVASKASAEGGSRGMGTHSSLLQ

SMILES | IC50
CSc1nn2cc(-c3nc4c(OC[C@@H]5CCCN5C(=O)[C@H](NC(=O)OC(C)(C)C)c5ccccc5)cccc4o3)nc2s1 [Example 334, tert-Butyl ((R)-2-((S)-2-(((2-(2-(methylthio)imidazo[2,1-b][1,3,4]thiadiazol-6-yl)benzo[d]oxazol-4-yl)oxy)methyl)pyrrolidin-1-yl)-2-oxo-1-phenylethyl)carbamate] | 2360 nM
COc1cc(OCc2cccc(OCc3c(C)cc(C)cc3C)c2)c2cc(-c3cn4nc(OC)sc4n3)oc2c1 [Example 377] | 6.91 nM
Fc1ccc2nc(-c3cn4nc(Br)sc4n3)sc2c1 [Example 183, 2-(2-bromoimidazo[2,1-b][1,3,4]thiadiazol-6-yl)-6-fluorobenzo[d]thiazole] | 412 nM
Fc1ccc2cc(-c3cn4nc(C(F)(F)Cl)sc4n3)oc2c1 [Example 243] | 364 nM
C[C@@H](F)c1nn2cc(-c3cc4c(Cl)cc(Cl)cc4o3)nc2s1 [Example 213A, (R)-6-(4,6-Dichlorobenzofuran-2-yl)-2-(1-fluoroethyl)imidazo[2,1-b][1,3,4]thiadiazole] | 333 nM
CSc1nn2cc(-c3nc4c(OCCN5CCOCC5)cccc4o3)nc2s1 [Example 168] | 1150 nM
COc1cc2oc(-c3cn4nc(C(C)(F)F)sc4n3)cc2cc1Br [Example 272] | 29.1 nM
COc1cc(OCc2cc(OCc3ccccc3)cc(C(F)(F)F)c2)c2cc(-c3cn4nc(OC)sc4n3)oc2c1 [Example 400] | 7.47 nM
COCCOc1cccc2oc(-c3cn4nc(SC)sc4n3)cc12 [Example 268] | 21.8 nM
COc1cc(OCc2cccc(OCc3ccc(C)cc3C)c2)c2cc(-c3cn4nc(OC)sc4n3)oc2c1 [Example 312] | 2.13 nM
COc1nn2cc(-c3cc4cc(Cl)c(OC)cc4o3)nc2s1 [Example 201, 2-Methoxy-6-(5-chloro-6-methoxybenzofuran-2-yl)imidazo[2,1-b][1,3,4]thiadiazole] | 4.38 nM
CCc1cccc2cc(-c3cn4nc(OC)sc4n3)oc12 [Example 92] | 13 nM
CSc1nn2cc(-c3cc4ccc(C)c(C)c4o3)nc2s1 [Example 107] | 339 nM
CSc1nn2cc(-c3nc4cc(C)ccc4o3)nc2s1 [Example 113] | 15.2 nM
Cc1ccc2nc(-c3cn4nc(C(C)(F)F)sc4n3)sc2c1 [Example 199] | 2680 nM
COc1cc(OCc2cccc(OCc3cccc(F)c3F)c2)c2cc(-c3cn4nc(OC)sc4n3)oc2c1 [Example 314] | 0.72 nM
COc1cc(OC)c2cc(-c3cn4nc(C(C)(F)F)sc4n3)oc2c1Br [Example 225, 6-(7-Bromo-4,6-dimethoxybenzofuran-2-yl)-2-(1,1-difluoroethyl)imidazo[2,1-b][1,3,4]thiadiazole] | 300 nM
CCc1nn2cc(-c3nc4ccc(OCc5ccc(OC)cc5)cc4o3)nc2s1 [Example 84] | 101 nM
COc1nn2cc(-c3cc4cccc(OC)c4o3)nc2s1 [Example 35] | 7.65 nM
COc1cc(Br)c2oc(-c3cn4nc(SC)sc4n3)cc2c1 [Example 283] | 2710 nM
COc1nn2cc(-c3nc4ccc(OCc5ccc(C(F)(F)F)cc5)cc4o3)nc2s1 [Example 165] | 81 nM
COc1nn2cc(-c3cc4c(F)cccc4o3)nc2s1 [Example 279] | 3.46 nM
COc1cc(OCc2cccc(OCc3cc(F)cc(F)c3)c2)c2cc(-c3cn4nc(OC)sc4n3)oc2c1 [Example 311] | 8.82 nM
CSc1nn2cc(-c3cc4c(C(=O)O)cccc4o3)nc2s1 [Example 219, 2-(2-(Methylthio)imidazo[2,1-b][1,3,4]thiadiazol-6-yl)benzofuran-4-carboxylic acid] | 1280 nM
COc1cc(Br)cc2cc(-c3cn4nc(SC)sc4n3)oc12 [Example 284] | 139 nM

SMILES | IC50
CSc1nn2cc(-c3nc4c(C)cccc4o3)nc2s1 [Example 128] | 17.1 nM
CSc1nn2cc(-c3nc4ccc(OCc5cccnc5)cc4o3)nc2s1 [Example 145] | 286 nM
CSc1nn2cc(-c3cc4cc(OCc5ccccc5)ccc4o3)nc2s1 [Example 230] | 2300 nM
COc1cc(OCc2cccc(OCc3ccccc3)c2)c2cc(-c3cn4nc(Br)sc4n3)oc2c1 [Example 344] | 1.12 nM
CSc1nn2cc(-c3nc4c(OCc5cccnc5)cccc4o3)nc2s1 [Example 154] | 571 nM
CSc1nn2cc(-c3nc4ccc(OCc5ccncc5)cc4o3)nc2s1 [Example 146] | 911 nM
CCc1nn2cc(-c3nc4c(C)cccc4o3)nc2s1 [Example 42] | 462 nM
CSc1nn2cc(-c3nc4c(OC(F)(F)F)cccc4s3)nc2s1 [Example 181, 2-(2-(Methylthio)imidazo[2,1-b][1,3,4]thiadiazol-6-yl)-4-(trifluoromethoxy)benzo[d]thiazole] | 419 nM
COc1cc(OCc2ccccc2)c2nc(-c3cn4nc(OC)sc4n3)oc2c1 [Example 121, 4-(Benzyloxy)-6-methoxy-2-(2-methoxyimidazo[2,1-b][1,3,4]thiadiazol-6-yl)benzo[d]oxazole] | 13 nM
COc1nn2cc(-c3cc4c(OCc5cccc(OCc6ccccc6)c5)cc(OC(F)F)cc4o3)nc2s1 [Example 416, 6-(4-((3-(Benzyloxy)benzyl)oxy)-6-(difluoromethoxy)benzofuran-2-yl)-2-methoxyimidazo[2,1-b][1,3,4]thiadiazole] | 1.09 nM
CC(F)c1nn2cc(-c3cc4ccc(F)cc4o3)nc2s1 (centres unmarked) [Example 245] | 72.3 nM
COc1nn2cc(-c3cc4c(OCc5cccc(OCc6ccccc6)c5)cc(Cl)cc4o3)nc2s1 [Example 414, 6-(4-((3-(Benzyloxy)benzyl)oxy)-6-chlorobenzofuran-2-yl)-2-methoxyimidazo[2,1-b][1,3,4]thiadiazole] | 5.17 nM
COc1nn2cc(-c3cc4c(Cl)nccc4o3)nc2s1 [Example 223, 4-Chloro-2-(2-methoxyimidazo[2,1-b][1,3,4]thiadiazol-6-yl)furo[3,2-c]pyridine] | 21.6 nM
COc1cc(OC)c2nc(-c3cn4nc(SC)sc4n3)sc2c1 [Example 189] | 2200 nM
COc1nn2cc(-c3nc4cc(C(C)(C)C)ccc4o3)nc2s1 [Example 134] | 321 nM
COc1nn2cc(-c3cc4c(C(F)(F)F)cc(C)nc4o3)nc2s1 [Example 305] | 13.6 nM
CSc1nn2cc(-c3cc4c(OCc5cccc(OCc6ccccc6)c5)cc(OC=O)cc4o3)nc2s1 [Example 425] | 12.4 nM
CSc1nn2cc(-c3cc4c(OCc5cccc(OCc6ccccc6)c5)cc(O)cc4o3)nc2s1 [Example 421] | 24.5 nM
COc1cc(OCc2cccc(OCc3cccnc3C)c2)c2cc(-c3cn4nc(OC)sc4n3)oc2c1 [Example 308] | 187 nM
CSc1nn2cc(-c3cc4cccc(OC(F)(F)F)c4o3)nc2s1 [Example 70] | 400 nM
CSc1nn2cc(-c3cc4cccc(F)c4o3)nc2s1 [Example 257] | 50.2 nM
CCc1nn2cc(-c3cc4ccccc4o3)nc2s1 [Example 47] | 68 nM
CSc1nn2cc(-c3nc4c(OCc5cc(F)cc(F)c5)cccc4o3)nc2s1 [Example 171] | 48.1 nM
CSc1nn2cc(-c3cc4c(Cl)nccc4o3)nc2s1 [Example 221, 4-Chloro-2-(2-(methylthio)imidazo[2,1-b][1,3,4]thiadiazol-6-yl)furo[3,2-c]pyridine] | 12.5 nM
COc1nn2cc(-c3nc4cc(F)c(F)cc4o3)nc2s1 [Example 138] | 470 nM
